Data reported in PubChem BioAssay (NCI).
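Results reflect a 48-hour exposure of cells in 96-well plates to compound at five concentrations. The concentration for full growth arrest is given as TGI.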

Assays:
Test in all cases: NCI anticancer screen, dose series, 48 h
[1] = system: M14 melanoma
[2] = system: MCF7 breast
[3] = system: MOLT-4 leukemia
[4] = system: SW-620 colon
[5] = system: HT29 colon
[6] = system: SK-MEL-28 melanoma
[7] = system: NCI-H226 lung
[8] = system: HOP-92 NSCLC
[9] = system: MDA-MB-435
[10] = system: SK-MEL-5 melanoma
[11] = system: SF-268 CNS
[12] = system: NCI/ADR-RES ovarian
[13] = system: OVCAR-8 ovarian
[14] = system: DU-145 prostate
[15] = system: T-47D breast
[16] = system: NCI-H460 lung
[17] = system: OVCAR-3 ovarian
[18] = system: OVCAR-5 ovarian
[19] = system: NCI-H522 lung
[20] = system: LOX IMVI melanoma
[21] = system: HS 578T breast
[22] = system: KM12 colon
[23] = system: OVCAR-4 ovarian
[24] = system: A549 NSCLC
[25] = system: SF-539 CNS
[26] = system: CCRF-CEM leukemia
[27] = system: SK-MEL-2 melanoma
[28] = system: TK-10 renal
[29] = system: MALME-3M melanoma
[30] = system: SK-OV-3 ovarian
[31] = system: U251 CNS
[32] = system: 786-0 renal
[33] = system: RPMI-8226 leukemia
[34] = system: HL-60(TB) leukemia
[35] = system: PC-3 prostate
[36] = system: SN12C renal
[37] = system: HCC-2998 colon
[38] = system: EKVX NSCLC
[39] = system: IGROV1 ovarian
[40] = system: MDA-N
[41] = system: SNB-19 CNS
[42] = system: K-562 leukemia
[43] = system: UACC-257 melanoma
[44] = system: SF-295 CNS
[45] = system: ACHN renal
[46] = system: SNB-75 CNS
[47] = system: HCT-15 colon
[48] = system: HCT-116 colon
[49] = system: BT-549 breast
[50] = system: NCI-H23 lung
[51] = system: MDA-MB-231 breast
[52] = system: A498 renal
[53] = system: UO-31 renal
[54] = system: COLO 205 colon
[55] = system: CAKI-1 renal
[56] = system: RXF 393 renal
[57] = system: UACC-62 melanoma
[58] = system: HOP-62 NSCLC
[59] = system: SR leukemia

Measured: TGI

CC[C@H]1C[C@@H](O)[C@@H]2[C@H](O)[C@H](O)CN2C1
not listed: [49] | [50] | [51] | [52] | [53] | [54] | [55] | [56] | [57] | [58] | [59]
> 100 µM: all other assays above

CC(=O)OC1C[C@@H](C)C2(C[C@H](O)c3ccoc3)C(=O)OC[C@]13C2CCC(O)C31CO1 (some centres not stated)
not listed: [4] | [15] | [30] | [34] | [38]
> 100 µM: all other assays above
